Laboratory results published in patent US20260124192A1, “COMPOUNDS, COMPOSITIONS, AND METHODS OF TREATING RNA VIRAL INFECTIONS” (priority 2024, published 2026).

System: CoV229E
Test: Anti-Coronavirus 229E cytoprotection (CPE) assay, MRC-5 (Method 3)
Format: cell-based, human Coronavirus 229E
Conditions: Human coronavirus 229E, MRC5, […], read-out: CoV229E - EC50 (μM), MRC-5; XTT cytoprotection; six days
With `Fc1ccc(-c2cc3sccc3n2Cc2ccc(OCCN3CCCCC3)cc2)cc1` [MCAA-06] the EC50 was 0.29 µM.
Work on `Nc1cccc2c1nc(-c1ccc(F)cc1)n2Cc1ccc(OCCN2CCCCC2)cc1` [MCAA-10] yielded an EC50 of 2.85 µM.
Compound `Nc1cccc2c1nc(-c1ccc(F)cc1)n2Cc1ccc(OCCC2CCCCC2)cc1` [MCAA-11] has an EC50 of 2.74 µM.
In the case of `O=[N+]([O-])c1cccc2nc(-c3ccc(F)cc3)n(Cc3ccc(OCCN4CCCCC4)cc3)c12` [MCAA-12], the EC50 is reported as 2.94 µM.
`O=[N+]([O-])c1cccc2c1nc(-c1ccc(F)cc1)n2Cc1ccc(OCCN2CCCCC2)cc1` [MCAA-13] gave an EC50 of 2.96 µM.
Work on `O=[N+]([O-])c1cccc2c1nc(-c1ccc(F)cc1)n2Cc1ccc(OCCC2CCCCC2)cc1` [MCAA-15] yielded an EC50 greater than 5 µM.

Same assay, conditions: MRC-5; XTT cytoprotection; six days; read-out: CoV229E - EC50
With `COc1ccc(-c2c(Cc3ccc(OCCN4CCCCC4)cc3)c3ccc(OC)cc3n2C)cc1` [MCAA-01] the EC50 was 1.88 µM.

System: HCV genotype 1b replicon
Test: microbe, parasite or virus in culture
Format: cell-based, Hepatitis C Virus
Conditions: @ 10 μM; Huh-luc/neo-ET replicon
In the case of `O=[N+]([O-])c1cccc2c1nc(-c1ccc(F)cc1)n2Cc1ccc(OCCC2CCCCC2)cc1` [MCAA-15], the “HCV 1b - percent effect” value is reported as 38% @.

Same assay, conditions: Hepatitis C virus, Huh-luc/neo-ET, 72 h, read-out: HCV 1b - EC50 (μM)
`CC(C)OC(=O)[C@H](C)N[P@](=O)(OC[C@H]1O[C@@H](n2ccc(=O)[nH]c2=O)[C@](C)(F)[C@@H]1O)Oc1ccccc1` [Sofosbuvir, reference compound] gave an EC50 of 0.06 µM.

Same assay, conditions: Hepatitis C virus; Huh-luc/neo-ET replicon; 72 hours; luciferase; read-out: HCV 1b - EC50
`Fc1ccc(-c2cc3sccc3n2Cc2ccc(OCCN3CCCCC3)cc2)cc1` [MCAA-06] showed an EC50 greater than 10 µM.
`Nc1cccc2c1nc(-c1ccc(F)cc1)n2Cc1ccc(OCCN2CCCCC2)cc1` [MCAA-10] showed an EC50 of 7.2 µM.
`Nc1cccc2c1nc(-c1ccc(F)cc1)n2Cc1ccc(OCCC2CCCCC2)cc1` [MCAA-11] gave an EC50 of 4.19 µM.
For `O=[N+]([O-])c1cccc2nc(-c3ccc(F)cc3)n(Cc3ccc(OCCN4CCCCC4)cc3)c12` [MCAA-12], the EC50 was 2.78 µM.
Work on `O=[N+]([O-])c1cccc2c1nc(-c1ccc(F)cc1)n2Cc1ccc(OCCN2CCCCC2)cc1` [MCAA-13] yielded an EC50 of 7.05 µM.

System: not listed separately
Test: XTT cell viability assay, Huh-luc/neo-ET
Format: cell-based
Conditions: human, Huh-luc/neo-ET cells, XTT, 72 hours, read-out: HCV 1b - TC50
Experimental: (§1) Twenty-four hours after seeding the cells, the cell culture supernatant was removed from each well and replaced with 175 μL fresh complete medium minus G418. Test compounds were evaluated at a high-test concentration of 10 μM and five serial half-logarithmic dilutions in three biological replicates. In three biological replicates, Sofosbuvir was evaluated in parallel at a high-test concentration of 1 μM and five serial half-logarithmic dilutions. Compounds were first serially diluted in DMSO to 400× of each final in-well concentration. An intermediate 8× solution was prepared in a complete medium and then added to the cells in a volume of 25 μL per well. A complete medium containing an equal percentage of DMSO (v/v) was added to vehicle-treated control cells. The final DMSO concentration was 0.25% (v/v) for all samples. The cells were incubated for an additional 72 hours at 37° C./5% CO2, then HCV replication was measured by luciferase activity and cell viability was assessed in parallel using an XTT colorimetric assay.
(§2) Huh-luc/neo-ET cell viability was measured at 72 hours after treatment using the tetrazolium dye XTT (2,3-bis(2-methoxy-4-nitro-5-sulfophenyI)-5[(phenylamino)carbonyl]-2H-tetrazolium hydroxide). Mitochondrial enzymes of metabolically active cells metabolize XTT-tetrazolium to a soluble formazan product. XTT solution was prepared fresh at 1 mg/mL in DMEM. Phenazine methosulfate (PMS) solution was prepared at 0.15 mg/mL in PBS and stored in the dark at −20° C. An XTT/PMS stock was prepared immediately before use by adding 40 μL of PMS per ml of XTT solution. Fifty microliters (50 μL) XTT/PMS were added per well, and the cells were incubated for 4 hours at 37° C. The cell culture plates were then sealed with adhesive plate sealers and shaken gently or inverted several times to mix the soluble formazan product. The formazan product was measured spectrophotometrically by absorbance at 450/650 nm on a Vmax plate reader (Molecular Devices). The raw data in Softmax Pro 5.4.2 software was imported into Microsoft Excel for further analysis. Data are presented as absorbance values (450/650 nm) or the percentage of viable cells relative to vehicle-treated control (mean+1—standard deviation, n=3 biological replicates from one independent experiment).
In the case of `Fc1ccc(-c2cc3sccc3n2Cc2ccc(OCCN3CCCCC3)cc2)cc1` [MCAA-06], the CC50 at 72 h is reported as greater than 10000 nM.
For `Nc1cccc2c1nc(-c1ccc(F)cc1)n2Cc1ccc(OCCN2CCCCC2)cc1` [MCAA-10], the CC50 at 72 h was greater than 10000 nM.
In the case of `Nc1cccc2c1nc(-c1ccc(F)cc1)n2Cc1ccc(OCCC2CCCCC2)cc1` [MCAA-11], the CC50 at 72 h is reported as 5820 nM.
Work on `O=[N+]([O-])c1cccc2nc(-c3ccc(F)cc3)n(Cc3ccc(OCCN4CCCCC4)cc3)c12` [MCAA-12] yielded a CC50 at 72 h greater than 10000 nM.
`O=[N+]([O-])c1cccc2c1nc(-c1ccc(F)cc1)n2Cc1ccc(OCCN2CCCCC2)cc1` [MCAA-13] showed a CC50 at 72 h greater than 10000 nM.
`O=[N+]([O-])c1cccc2c1nc(-c1ccc(F)cc1)n2Cc1ccc(OCCC2CCCCC2)cc1` [MCAA-15] gave a CC50 at 72 h greater than 10000 nM.
Compound `CC(C)OC(=O)[C@H](C)N[P@](=O)(OC[C@H]1O[C@@H](n2ccc(=O)[nH]c2=O)[C@](C)(F)[C@@H]1O)Oc1ccccc1` [Sofosbuvir, reference compound] has a CC50 at 72 h greater than 1000 nM.

System: Huh-luc/neo-ET cells
Test: XTT cell viability assay, Huh-luc/neo-ET
Format: cell-based
Conditions: XTT, 72 hours, read-out: HCV 1b - TC50
Experimental: as §1, §2
`COc1ccc(-c2c(Cc3ccc(OCCN4CCCCC4)cc3)c3ccc(OC)cc3n2C)cc1` [MCAA-01] showed a CC50 greater than 10000 nM.

System: MCF7 wild-type cell lines
Test: MCF7 growth inhibition assay (Cell Titre Glo 2.0)
Format: cell-based
Conditions: Homo sapiens, MCF7, 120 h, read-out: MCF-7 IC50 (μM)
Experimental: The growth inhibition properties of inhibitors on MCF7 wild-type cell lines were evaluated using the Cell Titre Glo 2.0 cell viability reagent. The assay utilized 384-well black clear bottom plates with 20 μl of MCF7 wild-type cell suspension mixed with reference/test compounds and 20 μl of Cell Titre Glo 2.0 reagent. Cells were seeded at a density of 1000 cells/well in DMEM High Glucose culture media+10% Fetal Bovine Serum (FBS). Staurosporine and Camptothecin served as positive controls for confirming cytotoxicity at a concentration of 30 μM, and vehicle control of 1% DMSO was used to standardize conditions across all test points. The assay and culture media both contained 1% DMSO. Assays were conducted in duplicate for each concentration of the test compounds. The incubation period for the assay was set at 120 hours, after which growth inhibition was assessed. Using a multi-mode reader, the assay readout was based on luminescence measured in Relative Light Units (RLUs). The viability luminescence signal was monitored continually from the same wells over an extended period, allowing for detailed analysis of cell viability. Measurements were taken using an integration time ranging from 0.25 to 1 second across plates designated for various time points.
Cells were maintained and seeded in 384 […] plates, maintaining 1000 cells/well. Seeded plates were incubated at 37° C., 5% CO2 for 16-18 hours to ensure optimal cell adherence and growth. Post-incubation, reference, and test compounds were added carefully to the wells for further processing. Plates were incubated again at 37° C., 5% CO2 for 120 hours (5 days) to allow compound effects. This was followed by the addition of CTG reagent as per the kit's instruction protocol for 30 minutes and RLU data to be recorded. Post plate read data to be analyzed using GraphPad Prism for software IC50 value generation.
Next, the NCEs were tested for selective estrogen regulation modulation activity by using a growth inhibition assay. The assay is performed on MCF7 cells, which are derived from a hormone-dependent breast cancer that stops growing upon estrogen receptor inhibition. […] Staurosporine and Camptothecin served as positive controls for cytotoxicity and 1% DMSO as the vehicle control.
`C[C@]12CC[C@@H]3c4ccc(O)cc4C[C@@H](CCCCCCCCC[S+]([O-])CCCC(F)(F)C(F)(F)F)[C@H]3[C@@H]1CC[C@@H]2O` (stereo partly shown) [Fulvestrant, reference compound] showed an IC50 of 0.00089 µM.

Same assay, conditions: Homo sapiens, MCF7, read-out: IC50, MCF7 growth inhibition
In the case of `C[C@]12CC[C@@H]3c4ccc(O)cc4C[C@@H](CCCCCCCCC[S+]([O-])CCCC(F)(F)C(F)(F)F)[C@H]3[C@@H]1CC[C@@H]2O` (stereo partly shown) [Fulvestrant, reference compound], the IC50 is reported as 0.00089 µM.

Same assay, conditions: Homo sapiens; MCF7 growth inhibition; 120 hours; read-out: MCF-7 IC50
Compound `Fc1ccc(-c2cc3sccc3n2Cc2ccc(OCCN3CCCCC3)cc2)cc1` [MCAA-06] has an IC50 of 3.77 µM.
`Nc1cccc2c1nc(-c1ccc(F)cc1)n2Cc1ccc(OCCN2CCCCC2)cc1` [MCAA-10] showed an IC50 of 0.53 µM.
Compound `Nc1cccc2c1nc(-c1ccc(F)cc1)n2Cc1ccc(OCCC2CCCCC2)cc1` [MCAA-11] has an IC50 of 1.66 µM.
In the case of `O=[N+]([O-])c1cccc2nc(-c3ccc(F)cc3)n(Cc3ccc(OCCN4CCCCC4)cc3)c12` [MCAA-12], the IC50 is reported as 1.15 µM.
`O=[N+]([O-])c1cccc2c1nc(-c1ccc(F)cc1)n2Cc1ccc(OCCN2CCCCC2)cc1` [MCAA-13] gave an IC50 of 2.47 µM.
For `O=[N+]([O-])c1cccc2c1nc(-c1ccc(F)cc1)n2Cc1ccc(OCCC2CCCCC2)cc1` [MCAA-15], the IC50 was 0.57 µM.

System: not listed separately
Test: Cytotoxicity, XTT, MRC-5
Conditions: human
Work on `Fc1ccc(-c2cc3sccc3n2Cc2ccc(OCCN3CCCCC3)cc2)cc1` [MCAA-06] yielded a CC50 at 6 days of 1530 nM.
`Nc1cccc2c1nc(-c1ccc(F)cc1)n2Cc1ccc(OCCN2CCCCC2)cc1` [MCAA-10] gave a CC50 at 6 days greater than 5000 nM.
Work on `Nc1cccc2c1nc(-c1ccc(F)cc1)n2Cc1ccc(OCCC2CCCCC2)cc1` [MCAA-11] yielded a CC50 at 6 days greater than 5000 nM.
For `O=[N+]([O-])c1cccc2nc(-c3ccc(F)cc3)n(Cc3ccc(OCCN4CCCCC4)cc3)c12` [MCAA-12], the CC50 at 6 days was greater than 5000 nM.
In the case of `O=[N+]([O-])c1cccc2c1nc(-c1ccc(F)cc1)n2Cc1ccc(OCCN2CCCCC2)cc1` [MCAA-13], the CC50 at 6 days is reported as greater than 5000 nM.
`O=[N+]([O-])c1cccc2c1nc(-c1ccc(F)cc1)n2Cc1ccc(OCCC2CCCCC2)cc1` [MCAA-15] showed a CC50 at 6 days greater than 5000 nM.

System: MRC-5 cells
Test: Cytotoxicity, XTT, MRC-5
Conditions: read-out: CoV229E - TC50; MRC-5; XTT; six days
Compound `COc1ccc(-c2c(Cc3ccc(OCCN4CCCCC4)cc3)c3ccc(OC)cc3n2C)cc1` [MCAA-01] has a CC50 greater than 5000 nM.
